Test results: patent US12310962B2, “Methods and compositions for treating cancer” (Zetagen Therapeutics, Inc., priority 2019, dated 2025)
“Also recorded” adds a separate entry of the source.

Experiments:
[1] = tested on: breast cancer cells (BT20); assay: LDH release cytotoxicity assay; assay type: cell-based; conditions: naloxone added for 3 hours, LDH release at 24 hours post-treatment, corrected for cell number, p<0.001
[2] = tested on: non-tumor cells, breast epithelium (HUMEC) or vascular endothelium (HUVEC); assay: Cell number of non-tumor control cells versus naloxone dose; assay type: cell-based; conditions: 72 h
[3] = tested on: BT20; assay: Cell number after 72 hours of naloxone treatment; conditions: highest dose
[4] = tested on: osteosarcoma cells (SaOS2); assay: LDH release cytotoxicity assay; assay type: cell-based; conditions: naloxone added for 3 hours, LDH release at 24 hours post-treatment, corrected for cell number, p<0.001
[5] = tested on: BT474 TNBC cells; assay: Tumor spheroid assay; assay type: cell-based; conditions: 1-5 mM, dose dependent
Protocol: (§1) FIGS. 3A-3C depict a spheroid assay showing that naloxone (an OGFR antagonist) treatment decreases tumor size in vitro. […] FIG. 3B depicts a graph showing quantification of the size of the spheroids formed in the spheroid assay described in FIG. 3A as percent change in spheroid area fraction between time 0 and 120 hours after treatment. FIG. 3C depicts a graph showing quantification of the size of the spheroids formed in the spheroid assay described in FIG. 3A as percent change in cell area fraction in each spheroid at 120 hours after treatment.
(§2) Malignant tumors are characterized by invasion of surrounding normal tissues, and the spheroid assay is a simple micro-plate method (based on uniform, self-assembling 3D tumor spheroids) that is routinely used to assess tumor growth. The effects of anti-tumor efficacy were determined by quantifying the size of the spheroids formed in the and calculate percent change in spheroid area fraction between time 0 and 120 hours after treatment as shown in FIG. 3B. The anti-tumor efficacy was also determined by quantifying the percent change in cell area fraction in each spheroid at 120 hours after treatment as determined by staining the cells with crystal violet as shown in FIG. 3C.

[6] = tested on: SaOS2 osteosarcoma cells; assay: Tumor spheroid assay; assay type: cell-based; conditions: 1-5 mM, dose dependent
Protocol: as §1, §2

[7] = tested on: SaOS2 cells; assay: Cell number after 72 hours of naloxone treatment; conditions: highest dose
[8] = tested on: triple negative breast cancer (TNBC) cells BT474; assay: Cell number after 72 hours of naloxone treatment; assay type: cell-based; conditions: BT474; 72 h exposure; dose dependent
[9] = Cell number after 72 hours of naloxone treatment; assay type: cell-based; conditions: cells printed as "90"; highest dose; after 72 hours
[10] = tested on: breast cancer cells (BT474); assay: LDH release cytotoxicity assay; assay type: cell-based; conditions: naloxone added for 3 hours, LDH release at 24 hours post-treatment, corrected for cell number, p<0.001
[11] = between time 0 and 120 hours after treatment

## C=CCN1CC[C@]23c4c5ccc(O)c4O[C@H]2C(=O)CC[C@@]3(O)[C@H]1C5 [Naloxone, naloxone]
[1]
  increase in LDH values relative to normal (non-tumor) cells: 6 fold
[2]
  dose up to which a non-tumor cell sparing effect is provided: ≤ 2.5 mM
[3]
  decrease in cell number: 90%
[4]
  increase in LDH values relative to normal (non-tumor) cells: 6 fold
[5]; 120 hours after treatment
  tumor mass cellularity (percent change in cell area fraction, crystal violet): decreased
[5]; [11]
  size of the tumor masses (percent change in spheroid area fraction): reduced tumor growth; also recorded: decreased the size of the tumor masses
[6]; 120 hours after treatment
  tumor mass cellularity (percent change in cell area fraction, crystal violet): decreased
[6]; [11]
  size of the tumor masses (percent change in spheroid area fraction): decreased the size of the tumor masses
[7]
  decrease in cell number: 60%
[8]
  number of metabolically active cells compared to control non-tumor cells (HUMEC, HUVEC): significant reduction
[9]
  decrease in cell number: 90%
[10]
  increase in LDH values relative to normal (non-tumor) cells: 3 fold
